Data from patent US7166706B2 (priority 2001, dated 2007).
Read-outs that look alike come from different tables or passages of the source.

Legend:
[1] = system: Magnaporthe grisea strain P1.2; format: cell-based; details: for mean percentage of growth of the M. grisea fungus: 5th day, control = 100%
M. grisea spores = format: cell-based, Magnaporthe grisea
Botrytis cinerea = format: cell-based
Pythium ultimum = format: cell-based
Ustilago nuda = format: cell-based
[2] = system: Mycosphaerella graminicola; format: cell-based
yeast reductoisomerase [3] = target: T1, yeast reductoisomerase (Saccharomyces cerevisiae, UniProt P06168); assay: Stoichiometry of binding of the inhibitors to the yeast reductoisomerase; format: biochemical; details: for stoichiometry of binding of the inhibitor to the yeast reductoisomerase: 0.1 nmol inhibitor completely inhibits 0.1 nmol enzyme; for type of inhibition (reversibility): yeast reductoisomerase
Protocol: FIGS. 6A and 6B: Stoichiometry for binding of the inhibitors dimethylphosphinoyl-2-hydroxyacetate and N-hydroxy-N-isopropyloxamate to the yeast reductoisomerase. The inhibitors Hoe 704 [A] and IpOHA [B] (0.1 nmol) are incubated with varying amounts of enzyme (0 to 0.4 nmol) for 20 minutes at 25° C. with 25 nmol of NADPH and 0.25 μmol of Mg^2+ in a volume of 10 μl. The enzyme activity measurements are carried out at 25° C. in 1 ml of the following reaction medium: 10 mM MgCl2, 250 μM NADPH, 0.48 mM AHB, and in 50 mM sodium Hepes buffer, pH 7.5.
The kinetic parameters for the yeast reductoisomerase were determined by following the evolution of the enzyme reaction in the spectrophotometer under saturating conditions with respect to magnesium, to NADPH and to AHB or AL substrate. All the enzyme activity measurements were carried out in a quartz cuvette with an optical path of 1 cm, containing sodium Hepes buffer (50 mM, pH 7.5), 10 mM MgCl2, 250 μM NADPH, in a final volume of 1 ml, at 25° C. The enzyme reaction was initiated by adding 0.48 mM of AHB or of AL. The evolution of this reaction was followed by virtue of the decrease in absorption of NADPH at 340 nm.
The study of the stoichiometry of binding of the inhibitors N-hydroxy-N-isopropyl-oxamate and dimethylphosphinoyl-2-hydroxyacetate was carried out by incubating varying amounts of enzyme (from 0.1 to 0.4 nmol) with a constant amount of inhibitor for 20 minutes, with 25 nmol of NADPH and 0.25 μmol of MgCl2, in a final volume of 10 μl. The reactions are initiated by adding 0.48 mM AHB in 50 mM sodium Hepes buffer, pH 7.5, containing 10 mM MgCl2.
In the presence of 0.1 nmol of dimethylphosphinoyl-2-hydroxyacetate, an enzyme activity is detected only with amounts of enzyme greater than […]. Similarly, in the presence of 0.1 nmol of N-hydroxy-N-isopropyloxamate, an enzyme activity is detected only for amounts of enzyme greater than 0.1 nmol (FIG. 6). In addition, for these two inhibitors, when the enzyme is in excess relative to the inhibitor in the reaction medium, the enzyme activities increase in parallel with those of the control without inhibitor. […] In fact, in the case of irreversible inhibition, in the presence of a low amount of enzyme, all the enzyme complexes with the inhibitor. The enzyme activity is then zero, since there is no longer any free enzyme in the reaction medium. When the amount of enzyme present in the reaction medium is greater than the amount of inhibitor, the free enzyme in excess in the medium then behaves like the control without inhibitor (straight line parallel to the control).

yeast reductoisomerase [4] = target: T1, yeast reductoisomerase; assay: Kinetics of inhibition of the yeast reductoisomerase (NADPH absorbance at 340 nm); format: biochemical; details: for mechanism of inhibition with respect to the AHB substrate: 1/m3 linear in AHB concentration, enzyme 110 nM; for k0, inhibitor/enzyme association constant: yeast reductoisomerase 110 nM, 25° C., pH 7.5, AHB varied
Protocol: FIGS. 7A and 7B: Kinetics of inhibition of the yeast reductoisomerase in the presence of the inhibitors dimethylphosphinoyl-2-hydroxyacetate [A] and N-hydroxy-N-isopropyloxamate [B]. The enzyme activity measurements are carried out at 25° C. in 1 ml of the following reaction medium: 10 mM MgCl2, 250 μM NADPH, 0.48 mM AHB in 50 mM sodium Hepes buffer, pH 7.5, and in the presence of enzyme 110 nM.
The reactions are initiated by simultaneously adding varying amounts of inhibitors dimethylphosphinoyl-2-hydroxyacetate [A] and N-hydroxy-N-isopropyloxamate [B] (from 2 μM to 30 μM) to the reaction medium. The curves are plotted according to the equation (1), which makes it possible to determine the values for Kobs, the apparent rate of formation of the enzyme-inhibitor complex.
FIGS. 8A and 8B: Kinetics of inhibition of the yeast reductoisomerase in the presence of the inhibitors dimethylphosphinoyl-2-hydroxyacetate [A] and N-hydroxy-N-isopropyloxamate [B]. The enzyme activity measurements are carried out at 25° C. in 1 ml of the following reaction medium: 10 mM MgCl2, 250 μM NADPH, 0.48 mM AHB in 50 mM sodium Hepes buffer, pH 7.5, and in the presence of enzyme at 110 nM.
The reactions are initiated by simultaneously adding varying amounts of inhibitors [A] and [B] (from 2 μM to 50 μM) to the reaction medium.
FIGS. 9A and 9B: Determination of the association constant k0 for the dimethylphosphinoyl-2-hydroxyacetate [A] and for the N-hydroxy-N-isopropyloxamate [B] on the yeast reductoisomerase using the representation 1/Kobs as a function of the concentration of substrate AHB. The enzyme activity measurements are carried out at 25° C. in 1 ml of the following reaction medium: 10 mM MgCl2, 250 μM NADPH, from 125 μM to 2.375 mM AHB, and in 50 mM sodium Hepes buffer, pH 7.5, and in the presence of enzyme at 110 nM. The reactions are initiated by simultaneously adding varying amounts of substrate AHB (from 125 μM to 2.375 mM) and the inhibitors [A] (10 μM) and [B] (15 μM) to the reaction medium.
The curves are plotted according to the equation (3), which makes it possible to determine the values for k0, the rate of association of the inhibitor with the enzyme.
The effect of the inhibitors N-hydroxy-N-isopropyloxamate and dimethylphosphinoyl-2-hydroxyacetate on the yeast reductoisomerase was followed over time by measuring the decrease in absorbence of NADPH at 340 nm, in a spectrophotometer. […]
Equation (1): OD340=m1+(m2−m1).e^(−m3.t) where the parameters are as follows: • OD340 is the optical density measured on a spectrophotometer at 340 nm at time “t” • m1 the optical density when “t” tends toward infinity • m2 the initial optical density • m3 the product of the concentration of inhibitor multiplied by the apparent disappearance constant for NADPH. […]

[5] = system: all the sensitive fungal species; format: cell-based
plant reductoisomerase = plant reductoisomerase (Spinacia oleracea, UniProt Q01292); details: cited from earlier work
[6] = Magnaporthe grisea, liquid minimum medium (Table 5; text gives concentrations in μM)

T1 sequence (P06168 48-395): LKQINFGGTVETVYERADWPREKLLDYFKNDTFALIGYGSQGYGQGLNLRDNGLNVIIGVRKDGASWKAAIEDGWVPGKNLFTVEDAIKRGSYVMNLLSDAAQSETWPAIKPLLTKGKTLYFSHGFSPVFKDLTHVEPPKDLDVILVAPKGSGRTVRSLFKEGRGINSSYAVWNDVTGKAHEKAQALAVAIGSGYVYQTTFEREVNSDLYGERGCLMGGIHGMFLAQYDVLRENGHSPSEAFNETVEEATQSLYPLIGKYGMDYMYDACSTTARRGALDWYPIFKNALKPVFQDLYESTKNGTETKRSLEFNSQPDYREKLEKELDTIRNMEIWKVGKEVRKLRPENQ
Chain of plant reductoisomerase (Q01292 73-595): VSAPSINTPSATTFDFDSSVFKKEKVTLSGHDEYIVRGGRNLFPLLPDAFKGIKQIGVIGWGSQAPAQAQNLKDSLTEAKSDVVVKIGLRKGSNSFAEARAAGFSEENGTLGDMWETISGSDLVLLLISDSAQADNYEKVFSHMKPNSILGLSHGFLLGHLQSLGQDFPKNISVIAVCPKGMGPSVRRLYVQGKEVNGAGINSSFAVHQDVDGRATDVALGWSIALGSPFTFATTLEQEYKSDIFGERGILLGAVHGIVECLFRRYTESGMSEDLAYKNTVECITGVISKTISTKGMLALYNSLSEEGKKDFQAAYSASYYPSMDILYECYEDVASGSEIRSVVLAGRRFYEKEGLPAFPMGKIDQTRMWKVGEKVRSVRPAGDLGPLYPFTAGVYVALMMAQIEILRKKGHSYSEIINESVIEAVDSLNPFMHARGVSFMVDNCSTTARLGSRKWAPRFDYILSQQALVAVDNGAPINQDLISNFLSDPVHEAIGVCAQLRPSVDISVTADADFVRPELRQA

CC(C)N(O)C(=O)C(=O)O [N-hydroxy-N-isopropyloxamate]
mean percentage of growth of the M. grisea fungus ([1]; 0.03 μM inhibitor, MM + leucine, valine, isoleucine 0.3 mM (MM + ILV)): 77.5% | mean percentage of growth of the M. grisea fungus ([1]; 0.03 μM inhibitor, minimum medium (MM)): 92% | mean percentage of growth of the M. grisea fungus ([1]; 0.1 μM inhibitor, MM + ILV 0.3 mM): 83.5% | mean percentage of growth of the M. grisea fungus ([1]; 0.1 μM inhibitor, minimum medium (MM)): 89% | mean percentage of growth of the M. grisea fungus ([1]; 0.3 μM inhibitor, MM + ILV 0.3 mM): 81% | mean percentage of growth of the M. grisea fungus ([1]; 0.3 μM inhibitor, minimum medium (MM)): 72% | mean percentage of growth of the M. grisea fungus ([1]; 1 μM inhibitor, MM + ILV 0.3 mM): 72.5% | mean percentage of growth of the M. grisea fungus ([1]; 1 μM inhibitor, minimum medium (MM)): 56% | mean percentage of growth of the M. grisea fungus ([1]; 3 μM inhibitor, MM + ILV 0.3 mM): 71.5% | mean percentage of growth of the M. grisea fungus ([1]; 3 μM inhibitor, minimum medium (MM)): 13% | toxicity on growth when minimum medium is supplemented with valine, leucine and isoleucine ([1]; ILV at 0.3 mM, whatever the inhibitor concentration): lifted | Level of sensitivity to IpOHA ([1]; Magnaporthe grisea): Sensitive | ID50: concentration which inhibits fungal growth by 50% [1, 6]: 1 | ID80: concentration which inhibits fungal growth by 80% [1, 6]: 3 | inhibition of fungal growth ([1]; inhibitor 0.3 to 1 μM, MM medium, from the 3rd day): approximately 50% | ID80 (concentration of inhibitor such that the inhibition in fungal growth is 80%) ([1]; minimum medium, 5th day of growth): 1000 nM | concentration from which inhibition of growth is observed ([1]; minimum medium, from the 3rd day of growth): ≥ 0.3 µM | spore germination (M. grisea spores; 10 mM, in water or in minimum medium, at 24 and 72 hours): does not inhibit | spore germination (M. grisea spores; 1 and 3 μM, minimum medium, days 0 and 2): not blocked | Level of sensitivity to IpOHA (Botrytis cinerea): Resistant | effect on growth at the highest concentration used (Botrytis cinerea): not affected | ID50: concentration which inhibits fungal growth by 50% (Pythium ultimum): 10 | ID80: concentration which inhibits fungal growth by 80% (Pythium ultimum): 30 | Level of sensitivity to IpOHA (Pythium ultimum): Moderately sensitive | concentration from which growth is inhibited (Pythium ultimum): ≥ 10 µM | ID50: concentration which inhibits fungal growth by 50% (Ustilago nuda): 3 | ID80: concentration which inhibits fungal growth by 80% (Ustilago nuda): 30 | IpOHA concentrations for which inhibition is lifted by isoleucine, leucine and valine (Ustilago nuda): less than 30 μM | Level of sensitivity to IpOHA (Ustilago nuda): Moderately sensitive | concentration from which growth is inhibited (Ustilago nuda): ≥ 10 µM | ID50: concentration which inhibits fungal growth by 50% [2]: 1 | ID80: concentration which inhibits fungal growth by 80% [2]: 3 | Level of sensitivity to IpOHA [2]: Sensitive | concentration from which growth is inhibited [2]: ≥ 0.3 µM | stoichiometry of binding of the inhibitor to the yeast reductoisomerase (yeast reductoisomerase [3]): 1 mol of inhibitor per mole of enzyme | amount of enzyme above which an enzyme activity is detected (yeast reductoisomerase [3]; 0.1 nmol inhibitor, 20 min preincubation with NADPH and Mg2+): greater than 0.1 nmol | type of inhibition (reversibility) (yeast reductoisomerase [3]): irreversible inhibitors | mechanism of inhibition with respect to the AHB substrate (yeast reductoisomerase [4]): competitive | k0, inhibitor/enzyme association constant (yeast reductoisomerase [4]): 12 433 M^−1.s^−1 | toxicity when minimum medium is supplemented with isoleucine, leucine and valine [5]: lifted | k0, inhibitor/enzyme association constant (plant reductoisomerase): 1900 M⁻¹ s⁻¹

CP(C)(=O)C(O)C(=O)O (centres unmarked) [dimethylphosphinoyl-2-hydroxyacetate]
decrease in growth compared to control without inhibitor ([1]; inhibitor at 2 mM, MM medium, 6th and 7th day of growth): 50% | stoichiometry of binding of the inhibitor to the yeast reductoisomerase (yeast reductoisomerase [3]): 1 mol of inhibitor per mole of enzyme | type of inhibition (reversibility) (yeast reductoisomerase [3]): irreversible inhibitors | mechanism of inhibition with respect to the AHB substrate (yeast reductoisomerase [4]): competitive | k0, inhibitor/enzyme association constant (yeast reductoisomerase [4]): 7721 M⁻¹ s⁻¹ | k0, inhibitor/enzyme association constant (plant reductoisomerase): 22 000 M^−1.s^−1
